Data: the supplement of paper PMC11208160

Assay: recombinant UMI read abundance after kanamycin selection (control-corrected) (log10(CPM+1)); higher = more efficient recombination; extreme values may be limits of the assay; sequences stand for … in AGTGCAGAGAAAATCGGCCAGTTTTCTCTGCCTGCAGTCCGCATGCCGTGGGACCCCTTGGGTTCTAACCTGTTGCCTAGATTTATGCAGCGGACTGCCTTTCTCCCAAAGTGATAAACCGG…AGGTTGGTTTCACT; site = the 11-nt donor
Outline: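 Two replicates each of selected and unselected plating were used in this pooled Escherichia coli screen of donor and donor-binding-loop pairs for the IS621 bridge recombinase. Selection was with IPTG (0.07 mM) and kanamycin. Counts of recombinant UMIs, amplified across the donor–target junction, were converted to CPM, averaged, scaled by control-derived factors and reported as log10(CPM+1).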
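Also: IS621 bridge recombinase in Escherichia coli cells against a fixed T5 target plasmid.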

CGGAATTCATGGACCGGTTTTCCCGGTAATCCGTATTTGTT (site CGGAATCCTAA)
recombinant UMI read abundance (log10): 0.0141

CGGAATTCATGGACCGGTTTTCCCGGTAATCCGTATTTGTT (site CGGAATGCTAA)
recombinant UMI read abundance (log10): 0.00572

CGGAATTCATGGACCGGTTTTCCCGGTAATCCGTATTTGTT (site CGGAATTCTAA)
recombinant UMI read abundance (log10): 2.72

CGGACATCATGGACCGGTTTTCCCGGTAATCCGTATTTGCG (site CGGACATCTAG)
recombinant UMI read abundance (log10): 0

CGGACATCATGGACCGGTTTTCCCGGTAATCCGTATTTGCG (site CGGACATCTCG)
recombinant UMI read abundance (log10): 2.25

CGGACATCATGGACCGGTTTTCCCGGTAATCCGTATTTGCG (site CGGACATCTGG)
recombinant UMI read abundance (log10): 0

CGGACATCATGGACCGGTTTTCCCGGTAATCCGTATTTGCG (site CGGACATCTTG)
recombinant UMI read abundance (log10): 0.00626

CGGACCCCATGGACCGGTTTTCCCGGTAATCCGTATTTGTT (site CGGAATCCTAA)
recombinant UMI read abundance (log10): 0.00407

CGGACCCCATGGACCGGTTTTCCCGGTAATCCGTATTTGTT (site CGGACCCCTAA)
recombinant UMI read abundance (log10): 1.02

CGGACTACATGGACCGGTTTTCCCGGTAATCCGTATTTGCG (site CGGACTACTCG)
recombinant UMI read abundance (log10): 1.64

CGGACTTCATGGACCGGTTTTCCCGGTAATCCGTATTTGCC (site CGGACTTCTGG)
recombinant UMI read abundance (log10): 1.27

CGGATGACATGGACCGGTTTTCCCGGTAATCCGTATTTGCA (site CGGATGACTTG)
recombinant UMI read abundance (log10): 2.89

CGGATGGCATGGACCGGTTTTCCCGGTAATCCGTATTTGAA (site CGGATGGCTTT)
recombinant UMI read abundance (log10): 2.15

CGGATTCCATGGACCGGTTTTCCCGGTAATCCGTATTTGCT (site CGGAATCCTAA)
recombinant UMI read abundance (log10): 0

CGGATTCCATGGACCGGTTTTCCCGGTAATCCGTATTTGCT (site CGGATTCCTAG)
recombinant UMI read abundance (log10): 0

CGGCACTCATGGACCGGTTTTCCCGGTAATCCGTATTTGTA (site CGGCACTCTTA)
recombinant UMI read abundance (log10): 3.03

CGGCAGTCATGGACCGGTTTTCCCGGTAATCCGTATTTGCC (site CGGAAGTCTGG)
recombinant UMI read abundance (log10): 0

CGGCAGTCATGGACCGGTTTTCCCGGTAATCCGTATTTGCC (site CGGCAGTCTGG)
recombinant UMI read abundance (log10): 2.22

CGGCAGTCATGGACCGGTTTTCCCGGTAATCCGTATTTGCC (site CGGGAGTCTGG)
recombinant UMI read abundance (log10): 0

CGGCAGTCATGGACCGGTTTTCCCGGTAATCCGTATTTGCC (site CGGTAGTCTGG)
recombinant UMI read abundance (log10): 0

CGGCCATCATGGACCGGTTTTCCCGGTAATCCGTATTTGCT (site CGGACATCTAG)
recombinant UMI read abundance (log10): 0

CGGCCATCATGGACCGGTTTTCCCGGTAATCCGTATTTGCT (site CGGCCATCTAG)
recombinant UMI read abundance (log10): 1.29

CGGCCATCATGGACCGGTTTTCCCGGTAATCCGTATTTGCT (site CGGGCATCTAG)
recombinant UMI read abundance (log10): 0.0046

CGGCCATCATGGACCGGTTTTCCCGGTAATCCGTATTTGCT (site CGGTCATCTAG)
recombinant UMI read abundance (log10): 0

CGGCCCACATGGACCGGTTTTCCCGGTAATCCGTATTTGTG (site CGGCCCACTCA)
recombinant UMI read abundance (log10): 0.024

CGGCCGACATGGACCGGTTTTCCCGGTAATCCGTATTTGTA (site CGGCCGACTTA)
recombinant UMI read abundance (log10): 1.2

CGGCCTCCATGGACCGGTTTTCCCGGTAATCCGTATTTGTT (site CGGAATCCTAA)
recombinant UMI read abundance (log10): 0.0121

CGGCCTCCATGGACCGGTTTTCCCGGTAATCCGTATTTGTT (site CGGCCTCCTAA)
recombinant UMI read abundance (log10): 0.0159

CGGCGCCCATGGACCGGTTTTCCCGGTAATCCGTATTTGAG (site CGGCGCCCTCT)
recombinant UMI read abundance (log10): 0.00618

CGGCGCCCATGGACCGGTTTTCCCGGTAATCCGTATTTGTC (site CGGCGCCCTGA)
recombinant UMI read abundance (log10): 1.85

CGGCTTTCATGGACCGGTTTTCCCGGTAATCCGTATTTGGC (site CGGCTTTCTGC)
recombinant UMI read abundance (log10): 0.438

CGGGAAACATGGACCGGTTTTCCCGGTAATCCGTATTTGAT (site CGGGAAACTAT)
recombinant UMI read abundance (log10): 2.27

CGGGAAACATGGACCGGTTTTCCCGGTAATCCGTATTTGAT (site CGGGAACCTAT)
recombinant UMI read abundance (log10): 0.00381

CGGGAAACATGGACCGGTTTTCCCGGTAATCCGTATTTGAT (site CGGGAAGCTAT)
recombinant UMI read abundance (log10): 2.21

CGGGAAACATGGACCGGTTTTCCCGGTAATCCGTATTTGAT (site CGGGAATCTAT)
recombinant UMI read abundance (log10): 1.74

CGGGAACCATGGACCGGTTTTCCCGGTAATCCGTATTTGAT (site AGGGAACCTAT)
recombinant UMI read abundance (log10): 0

CGGGAACCATGGACCGGTTTTCCCGGTAATCCGTATTTGAT (site CAGGAACCTAT)
recombinant UMI read abundance (log10): 0

CGGGAACCATGGACCGGTTTTCCCGGTAATCCGTATTTGAT (site CCGGAACCTAT)
recombinant UMI read abundance (log10): 0

CGGGAACCATGGACCGGTTTTCCCGGTAATCCGTATTTGAT (site CGAGAACCTAT)
recombinant UMI read abundance (log10): 0

CGGGAACCATGGACCGGTTTTCCCGGTAATCCGTATTTGAT (site CGCGAACCTAT)
recombinant UMI read abundance (log10): 0

CGGGAACCATGGACCGGTTTTCCCGGTAATCCGTATTTGAT (site CGGAAACCTAT)
recombinant UMI read abundance (log10): 0

CGGGAACCATGGACCGGTTTTCCCGGTAATCCGTATTTGAT (site CGGCAACCTAT)
recombinant UMI read abundance (log10): 0

CGGGAACCATGGACCGGTTTTCCCGGTAATCCGTATTTGAT (site CGGGAAACTAT)
recombinant UMI read abundance (log10): 0

CGGGAACCATGGACCGGTTTTCCCGGTAATCCGTATTTGAT (site CGGGAACCTAA)
recombinant UMI read abundance (log10): 0.00496

CGGGAACCATGGACCGGTTTTCCCGGTAATCCGTATTTGAT (site CGGGAACCTAC)
recombinant UMI read abundance (log10): 0.0116

CGGGAACCATGGACCGGTTTTCCCGGTAATCCGTATTTGAT (site CGGGAACCTAG)
recombinant UMI read abundance (log10): 0

CGGGAACCATGGACCGGTTTTCCCGGTAATCCGTATTTGAT (site CGGGAACCTAT)
recombinant UMI read abundance (log10): 0

CGGGAACCATGGACCGGTTTTCCCGGTAATCCGTATTTGAT (site CGGGAACCTCT)
recombinant UMI read abundance (log10): 0

CGGGAACCATGGACCGGTTTTCCCGGTAATCCGTATTTGAT (site CGGGAACCTGT)
recombinant UMI read abundance (log10): 0

CGGGAACCATGGACCGGTTTTCCCGGTAATCCGTATTTGAT (site CGGGAACCTTT)
recombinant UMI read abundance (log10): 0.00554

CGGGAACCATGGACCGGTTTTCCCGGTAATCCGTATTTGAT (site CGGGAAGCTAT)
recombinant UMI read abundance (log10): 0

CGGGAACCATGGACCGGTTTTCCCGGTAATCCGTATTTGAT (site CGGGAATCTAT)
recombinant UMI read abundance (log10): 0

CGGGAACCATGGACCGGTTTTCCCGGTAATCCGTATTTGAT (site CGGGACCCTAT)
recombinant UMI read abundance (log10): 0.0207

CGGGAACCATGGACCGGTTTTCCCGGTAATCCGTATTTGAT (site CGGGAGCCTAT)
recombinant UMI read abundance (log10): 0

CGGGAACCATGGACCGGTTTTCCCGGTAATCCGTATTTGAT (site CGGGATCCTAT)
recombinant UMI read abundance (log10): 0

CGGGAACCATGGACCGGTTTTCCCGGTAATCCGTATTTGAT (site CGGGCACCTAT)
recombinant UMI read abundance (log10): 0.021

CGGGAACCATGGACCGGTTTTCCCGGTAATCCGTATTTGAT (site CGGGGACCTAT)
recombinant UMI read abundance (log10): 0

CGGGAACCATGGACCGGTTTTCCCGGTAATCCGTATTTGAT (site CGGGTACCTAT)
recombinant UMI read abundance (log10): 0

CGGGAACCATGGACCGGTTTTCCCGGTAATCCGTATTTGAT (site CGGTAACCTAT)
recombinant UMI read abundance (log10): 0

CGGGAACCATGGACCGGTTTTCCCGGTAATCCGTATTTGAT (site CGTGAACCTAT)
recombinant UMI read abundance (log10): 0

CGGGAACCATGGACCGGTTTTCCCGGTAATCCGTATTTGAT (site CTGGAACCTAT)
recombinant UMI read abundance (log10): 0

CGGGAACCATGGACCGGTTTTCCCGGTAATCCGTATTTGAT (site GGGGAACCTAT)
recombinant UMI read abundance (log10): 0

CGGGAACCATGGACCGGTTTTCCCGGTAATCCGTATTTGAT (site TGGGAACCTAT)
recombinant UMI read abundance (log10): 0

CGGGAACCATGGACCGGTTTTCCCGGTAATCCGTATTTGGT (site CGGGAACCTAA)
recombinant UMI read abundance (log10): 0.0297

CGGGAACCATGGACCGGTTTTCCCGGTAATCCGTATTTGGT (site CGGGAACCTAC)
recombinant UMI read abundance (log10): 0

CGGGAACCATGGACCGGTTTTCCCGGTAATCCGTATTTGGT (site CGGGAACCTAG)
recombinant UMI read abundance (log10): 0

CGGGAACCATGGACCGGTTTTCCCGGTAATCCGTATTTGGT (site CGGGAACCTAT)
recombinant UMI read abundance (log10): 0

CGGGAAGCATGGACCGGTTTTCCCGGTAATCCGTATTTGAT (site CGGGAAACTAT)
recombinant UMI read abundance (log10): 1.7

CGGGAAGCATGGACCGGTTTTCCCGGTAATCCGTATTTGAT (site CGGGAACCTAT)
recombinant UMI read abundance (log10): 0

CGGGAAGCATGGACCGGTTTTCCCGGTAATCCGTATTTGAT (site CGGGAAGCTAT)
recombinant UMI read abundance (log10): 1.9

CGGGAAGCATGGACCGGTTTTCCCGGTAATCCGTATTTGAT (site CGGGAATCTAT)
recombinant UMI read abundance (log10): 1.85

CGGGAATCATGGACCGGTTTTCCCGGTAATCCGTATTTGCC (site CGGGAATCTGG)
recombinant UMI read abundance (log10): 2.51

CGGGAATCATGGACCGGTTTTCCCGGTAATCCGTATTTGCC (site CGGGACTCTGG)
recombinant UMI read abundance (log10): 1.28

CGGGAATCATGGACCGGTTTTCCCGGTAATCCGTATTTGCC (site CGGGAGTCTGG)
recombinant UMI read abundance (log10): 2.11

CGGGAATCATGGACCGGTTTTCCCGGTAATCCGTATTTGCC (site CGGGATTCTGG)
recombinant UMI read abundance (log10): 0.646
